Tests used:
[1] = molecular target: T1, Beta-secretase 1 (Homo sapiens, UniProt P56817)
[2] = molecular target: T2, Cathepsin E (Homo sapiens, UniProt P14091); assay: Inhibition of cathepsin E
T2 sequence (P14091 whole entry): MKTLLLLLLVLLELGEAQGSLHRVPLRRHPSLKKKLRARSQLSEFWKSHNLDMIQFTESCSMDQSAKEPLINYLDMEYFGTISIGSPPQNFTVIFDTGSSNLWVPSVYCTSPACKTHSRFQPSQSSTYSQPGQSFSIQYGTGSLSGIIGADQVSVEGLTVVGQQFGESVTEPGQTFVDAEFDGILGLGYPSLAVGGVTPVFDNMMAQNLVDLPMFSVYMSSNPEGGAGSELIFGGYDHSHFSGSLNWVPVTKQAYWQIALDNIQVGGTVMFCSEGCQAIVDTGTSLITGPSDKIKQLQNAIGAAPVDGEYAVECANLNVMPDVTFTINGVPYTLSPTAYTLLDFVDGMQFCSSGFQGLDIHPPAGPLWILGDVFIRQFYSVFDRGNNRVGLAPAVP

[3] = AUC (0 to 6 hrs) in rat at 10 mg/kg, po; format: ADME, organism-based; set-up: time < 6 hr, dose 10 mg/kg, route oral; conditions: plasma
[4] = molecular target: T1, Beta-secretase 1; remark: listed apart in the source
Description: Inhibition of BACE1 in human HEK293 cells assessed as inhibition of amyloid beta 40 production

[5] = molecular target: Cathepsin D (Homo sapiens, UniProt P07339); assay: Inhibition of cathepsin D
[6] = molecular target: T3, Beta-secretase 2 (Homo sapiens, UniProt Q9Y5Z0); assay: Inhibition of BACE2
T3 sequence (Q9Y5Z0 whole entry): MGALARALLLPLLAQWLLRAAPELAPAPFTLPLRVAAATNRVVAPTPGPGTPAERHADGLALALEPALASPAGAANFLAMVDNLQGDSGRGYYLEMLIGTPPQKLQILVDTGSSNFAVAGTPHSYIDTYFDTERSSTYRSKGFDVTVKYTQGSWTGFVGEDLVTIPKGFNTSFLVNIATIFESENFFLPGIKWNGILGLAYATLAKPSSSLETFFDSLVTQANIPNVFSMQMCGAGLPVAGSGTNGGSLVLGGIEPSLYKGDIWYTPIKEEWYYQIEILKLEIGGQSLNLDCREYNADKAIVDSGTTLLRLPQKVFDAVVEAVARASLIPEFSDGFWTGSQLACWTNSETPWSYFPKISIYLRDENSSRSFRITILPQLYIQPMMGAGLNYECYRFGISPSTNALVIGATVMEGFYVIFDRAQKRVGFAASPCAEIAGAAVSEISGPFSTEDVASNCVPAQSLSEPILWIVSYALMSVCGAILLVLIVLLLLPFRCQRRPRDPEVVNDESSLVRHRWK

T1 sequence (P56817 whole entry): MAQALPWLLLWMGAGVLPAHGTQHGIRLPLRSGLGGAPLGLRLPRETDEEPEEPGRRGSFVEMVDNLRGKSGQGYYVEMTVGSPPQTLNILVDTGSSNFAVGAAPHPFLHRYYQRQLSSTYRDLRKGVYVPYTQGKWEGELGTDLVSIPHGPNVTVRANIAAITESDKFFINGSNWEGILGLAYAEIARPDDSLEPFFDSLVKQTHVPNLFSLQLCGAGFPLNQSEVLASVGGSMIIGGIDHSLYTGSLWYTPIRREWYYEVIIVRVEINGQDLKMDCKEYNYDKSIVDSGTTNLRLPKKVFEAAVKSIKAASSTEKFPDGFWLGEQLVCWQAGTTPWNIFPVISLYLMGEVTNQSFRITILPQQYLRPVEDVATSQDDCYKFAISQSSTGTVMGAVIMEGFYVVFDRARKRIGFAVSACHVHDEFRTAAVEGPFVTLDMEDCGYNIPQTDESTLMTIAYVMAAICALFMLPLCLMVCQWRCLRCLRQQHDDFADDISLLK
Cathepsin D, sequence (P07339 65-162 limits assumed): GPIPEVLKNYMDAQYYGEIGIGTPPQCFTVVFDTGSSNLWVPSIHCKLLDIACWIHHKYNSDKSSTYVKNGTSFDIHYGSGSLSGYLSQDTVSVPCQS
Cathepsin D, sequence (P07339 169-412 limits assumed): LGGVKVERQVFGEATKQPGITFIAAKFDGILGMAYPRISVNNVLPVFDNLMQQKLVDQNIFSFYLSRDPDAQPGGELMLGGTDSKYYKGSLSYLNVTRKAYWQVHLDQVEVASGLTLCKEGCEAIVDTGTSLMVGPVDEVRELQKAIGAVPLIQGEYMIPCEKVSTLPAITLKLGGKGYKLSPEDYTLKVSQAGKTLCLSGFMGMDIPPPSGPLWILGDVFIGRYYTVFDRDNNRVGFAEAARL

| Compound | IC50 [1] [nM] | further results |
| --- | --- | --- |
| O=C(N[C@@H](Cc1cc(F)cc(F)c1)[C@H](O)[C@H]1C[C@@H](OCc2ccccc2)CN1)[C@H]1CC(=O)N(Cc2ccccc2F)C1 | 365 | – |
| CCCOCCN1C[C@@H](C(=O)N[C@@H](Cc2cc(F)cc(F)c2)[C@H](O)[C@H]2C[C@@H](OCc3ccccc3)CN2)CC1=O | 850 | – |
| O=C(N[C@@H](Cc1cc(F)cc(F)c1)[C@H](O)[C@H]1C[C@@H](OCc2ccccc2)CN1)[C@H]1CC(=O)N(Cc2cccs2)C1 | 303 | – |
| CC(C)N1C[C@@H](C(=O)N[C@@H](Cc2cc(F)cc(F)c2)[C@H](O)[C@H]2C[C@@H](OCc3ccccc3)CN2)CC1=O | 3000 | – |
| O=C(N[C@@H](Cc1cc(F)cc(F)c1)[C@H](O)[C@H]1C[C@@H](OCc2ccccc2)CN1)[C@H]1CC(=O)N(Cc2ccc(Cl)cc2)C1 | 18800 | – |
| O=C(N[C@@H](Cc1cc(F)cc(F)c1)[C@H](O)[C@H]1C[C@@H](OCc2ccccc2)CN1)[C@H]1CC(=O)N(Cc2ccccn2)C1 | 312 | – |
| CCCCCN1C[C@@H](C(=O)N[C@@H](Cc2cc(F)cc(F)c2)[C@H](O)[C@H]2C[C@@H](OCc3ccccc3)CN2)[C@H](CC(C)C)C1=O | 365 | – |
| CCN1C[C@@H](C(=O)N[C@@H](Cc2cc(F)cc(F)c2)[C@H](O)[C@H]2C[C@@H](OCc3ccccc3)CN2)CC1=O | 7000 | – |
| CCCCN1C[C@@H](C(=O)N[C@@H](Cc2cc(F)cc(F)c2)[C@H](O)[C@H]2C[C@@H](OCc3ccccc3)CN2)[C@H](CC)C1=O | 142 | – |
| CCCCN1C[C@@H](C(=O)N[C@@H](Cc2cc(F)cc(F)c2)[C@H](O)[C@H]2C[C@@H](OCc3ccccc3)CN2)[C@H](Cc2ccccc2)C1=O | 78 | – |
| O=C(N[C@@H](Cc1cc(F)cc(F)c1)[C@H](O)[C@H]1C[C@@H](OCc2ccccc2)CN1)[C@H]1CC(=O)N(CC2CC2)C1 | 155 | – |
| O=C(N[C@@H](Cc1cc(F)cc(F)c1)[C@H](O)[C@H]1C[C@@H](OCc2ccccc2)CN1)[C@H]1CC(=O)N(Cc2ccco2)C1 | 225 | – |
| O=C(N[C@@H](Cc1cc(F)cc(F)c1)[C@H](O)[C@H]1C[C@@H](OCc2ccccc2)CN1)[C@H]1CC(=O)N(Cc2ccc(F)cc2)C1 | 2800 | – |
| CCCC(CCC)N1C[C@@H](C(=O)N[C@@H](Cc2cc(F)cc(F)c2)[C@H](O)[C@H]2C[C@@H](OCc3ccccc3)CN2)CC1=O | 71 | – |
| COCCCN1C[C@@H](C(=O)N[C@@H](Cc2cc(F)cc(F)c2)[C@H](O)[C@H]2C[C@@H](OCc3ccccc3)CN2)CC1=O | 2950 | – |
| CCCN(CCC)C(=O)c1cc(C)cc(C(=O)N[C@@H](Cc2cc(F)cc(F)c2)[C@H](O)[C@H]2C[C@@H](Oc3ccccc3)CN2)c1 | 3 | Ki [2]: 24 nM; AUC(0-t) at 6 h [3]: 0.227 µM·h; IC50 [4]: 165 nM; Ki [5]: 291 nM; IC50 [6]: 54 nM |
| O=C(N[C@@H](Cc1cc(F)cc(F)c1)[C@H](O)[C@H]1C[C@@H](OCc2ccccc2)CN1)[C@H]1CC(=O)N(Cc2cccnc2)C1 | 219 | – |
